From patent US20220187282A1, “CARDIOMYOCYTE PROLIFERATION” (The Council of the Queensland Institute of Medical Research, priority 2019, published 2022)
Like-named read-outs stand apart in the source and are kept apart here.

Tests used:
Format in all cases: biochemical
[1] = target: kinases (Homo sapiens, UniProt O14986); details: Test Conc(μM):ATP Conc(μM) 1:10
[2] = target: kinases (Homo sapiens, UniProt O15146); details: MUSK *Mn* FRET-Z-Lyte SP; Test Conc(μM):ATP Conc(μM) 1:50
[3] = target: kinases (Homo sapiens, UniProt P06213); details: INSR *Mn* FRET-Z-Lyte SP; Test Conc(μM):ATP Conc(μM) 1:25
[4] = target: kinases (Homo sapiens, UniProt P22694); details: PRKACB FRET-Lantha SP; Test Conc(μM) 1
[5] = target: kinases (Homo sapiens, UniProt P31751); details: AKT2 (PKB beta) FRET-Z-Lyte SP; Test Conc(μM):ATP Conc(μM) 1:200
[6] = target: kinases (Homo sapiens, UniProt P33981); details: TTK FRET-Lantha SP; Test Conc(μM) 1
[7] = target: kinases (Homo sapiens, UniProt P36888); details: FLT3 Hu Phos FRET-Z-Lyte SP; Test Conc(μM):ATP Conc(μM) 1:500
[8] = target: kinases (Homo sapiens, UniProt P41240); details: CSK FRET-Z-Lyte SP; Test Conc(μM):ATP Conc(μM) 1:10
[9] = target: kinases (Homo sapiens, UniProt P49841); details: GSK3B FRET-Z-Lyte SP; Test Conc(μM):ATP Conc(μM) 1:10
[10] = target: kinases (Homo sapiens, UniProt P54646)
[11] = target: kinases (Homo sapiens, UniProt P78362); details: SRPK2 FRET-Z-Lyte SP; Test Conc(μM):ATP Conc(μM) 1:25
[12] = target: kinases (Homo sapiens, UniProt Q12866); details: MERTK (cMER) *Mn* Z-Lyte SP; Test Conc(μM):ATP Conc(μM) 1:10
[13] = target: kinases (Homo sapiens, UniProt Q13882); details: PTK6 (Brk) *Mn* FRET-Z-Lyte SP; Test Conc(μM):ATP Conc(μM) 1:75
[14] = target: kinases (Homo sapiens, UniProt Q14004); details: Test Conc(μM) 1
[15] = target: kinases (Homo sapiens, UniProt Q15139); details: PRKD1 (PKC mu) Z-Lyte SP; Test Conc(μM):ATP Conc(μM) 1:10
[16] = target: kinases (Homo sapiens, UniProt Q16539)
[17] = target: kinases (Homo sapiens, UniProt Q86V86); details: PIM3 FRET-Z-Lyte SP; Test Conc(μM):ATP Conc(μM) 1:1000
[18] = target: kinases (Homo sapiens, UniProt Q8IY84); details: NIM1K FRET-Z-Lyte SP; Test Conc(μM):ATP Conc(μM) 1:10
[19] = target: kinases (Homo sapiens, UniProt Q8IYT8); details: ULK2 FRET-Lantha SP; Test Conc(μM) 1
[20] = target: kinases (Homo sapiens, UniProt Q8TDX7); details: NEK7 FRET-Z-Lyte SP; Test Conc(μM):ATP Conc(μM) 1:50
[21] = target: kinases (Homo sapiens, UniProt Q9H2X6); details: HIPK2 FRET-Z-Lyte SP; Test Conc(μM):ATP Conc(μM) 1:10
[22] = target: kinases (Homo sapiens, UniProt Q9H422); details: HIPK3 (YAK1) FRET-Z-Lyte SP; Test Conc(μM):ATP Conc(μM) 1:25
[23] = target: kinases (Homo sapiens, UniProt Q9H4B4); details: PLK3 FRET-Z-Lyte SP; Test Conc(μM):ATP Conc(μM) 1:50
[24] = target: kinases (Homo sapiens, UniProt Q9HAZ1); details: CLK4 FRET-Lantha SP; Test Conc(μM) 1
[25] = target: kinases (Homo sapiens, UniProt Q9NYL2); details: ZAK FRET-Lantha SP; Test Conc(μM) 1
[26] = target: kinases (Homo sapiens, UniProt Q9UEE5); details: STK17A (DRAK1) FRET-Lantha SP; Test Conc(μM) 1
[27] = target: kinases (Homo sapiens, UniProt Q9Y2H1); details: STK38L (NDR2) FRET-Lantha SP; Test Conc(μM) 1
[28] = target: kinases (Homo sapiens, UniProt Q9Y2U5); details: MAP3K2 (MEKK2) FRET-Lantha SP; Test Conc(μM) 1
[29] = AMPK (A2/B2/G1) FRET-Lantha SP, Test Conc(μM) 1
[30] = AMPK (A2/B2/G2) FRET-Lantha SP, Test Conc(μM) 1
[31] = AMPK A2/B1/G1 FRET-Z-Lyte SP, Test Conc(μM):ATP Conc(μM) 1:150
[32] = AMPK A2/B1/G2 FRET-Z-Lyte SP, Test Conc(μM):ATP Conc(μM) 1:10
[33] = AMPK A2/B1/G3 FRET-Z-Lyte SP, Test Conc(μM):ATP Conc(μM) 1:25
[34] = AMPK A2/B2/G3 FRET-Z-Lyte SP, Test Conc(μM):ATP Conc(μM) 1:50
[35] = MAPK14 (p38a) Direct Z-Lyte SP, Test Conc(μM):ATP Conc(μM) 1:500
[36] = MAPK14 (p38a)Cascade Z-Lyte SP, Test Conc(μM):ATP Conc(μM) 1:100

kinases (Homo sapiens, UniProt Q16539), sequence (Q16539 whole entry): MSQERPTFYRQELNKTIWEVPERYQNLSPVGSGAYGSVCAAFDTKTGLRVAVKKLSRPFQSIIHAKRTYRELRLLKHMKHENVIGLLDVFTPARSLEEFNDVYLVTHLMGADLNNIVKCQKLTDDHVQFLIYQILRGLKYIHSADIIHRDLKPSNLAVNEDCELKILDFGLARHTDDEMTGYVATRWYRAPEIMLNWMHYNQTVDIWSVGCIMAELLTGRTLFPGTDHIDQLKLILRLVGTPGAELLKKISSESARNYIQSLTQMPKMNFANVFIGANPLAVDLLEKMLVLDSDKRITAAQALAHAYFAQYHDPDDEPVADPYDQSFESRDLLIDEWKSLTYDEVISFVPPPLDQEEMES
kinases (Homo sapiens, UniProt P54646), sequence (P54646 whole entry): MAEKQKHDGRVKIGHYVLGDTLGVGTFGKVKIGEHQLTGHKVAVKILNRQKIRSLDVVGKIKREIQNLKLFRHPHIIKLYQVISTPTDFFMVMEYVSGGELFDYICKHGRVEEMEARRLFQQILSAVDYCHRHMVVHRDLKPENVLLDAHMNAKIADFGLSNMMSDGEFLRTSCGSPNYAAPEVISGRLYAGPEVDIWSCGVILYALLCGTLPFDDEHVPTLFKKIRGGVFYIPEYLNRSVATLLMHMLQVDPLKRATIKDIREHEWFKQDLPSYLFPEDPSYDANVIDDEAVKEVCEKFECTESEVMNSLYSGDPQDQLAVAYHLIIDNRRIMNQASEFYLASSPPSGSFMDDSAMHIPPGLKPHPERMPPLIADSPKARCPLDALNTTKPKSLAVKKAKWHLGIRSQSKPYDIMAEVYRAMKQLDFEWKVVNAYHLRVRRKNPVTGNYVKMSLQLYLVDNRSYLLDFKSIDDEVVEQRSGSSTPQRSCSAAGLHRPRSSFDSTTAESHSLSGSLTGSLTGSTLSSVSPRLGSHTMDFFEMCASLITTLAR
kinases (Homo sapiens, UniProt P41240), sequence (P41240 whole entry): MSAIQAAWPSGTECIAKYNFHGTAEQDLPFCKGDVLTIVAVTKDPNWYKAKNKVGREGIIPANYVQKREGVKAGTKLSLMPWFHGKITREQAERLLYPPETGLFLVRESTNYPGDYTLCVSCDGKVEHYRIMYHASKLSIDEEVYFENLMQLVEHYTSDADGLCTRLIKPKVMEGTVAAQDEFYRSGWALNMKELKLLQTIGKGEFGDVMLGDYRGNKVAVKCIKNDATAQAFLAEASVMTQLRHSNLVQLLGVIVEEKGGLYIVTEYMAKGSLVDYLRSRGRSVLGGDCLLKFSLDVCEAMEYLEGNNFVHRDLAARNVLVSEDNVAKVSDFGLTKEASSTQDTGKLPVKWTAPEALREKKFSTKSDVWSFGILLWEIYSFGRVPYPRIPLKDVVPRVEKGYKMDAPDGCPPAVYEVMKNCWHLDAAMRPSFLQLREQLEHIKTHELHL
kinases (Homo sapiens, UniProt Q8IY84), sequence (Q8IY84 whole entry): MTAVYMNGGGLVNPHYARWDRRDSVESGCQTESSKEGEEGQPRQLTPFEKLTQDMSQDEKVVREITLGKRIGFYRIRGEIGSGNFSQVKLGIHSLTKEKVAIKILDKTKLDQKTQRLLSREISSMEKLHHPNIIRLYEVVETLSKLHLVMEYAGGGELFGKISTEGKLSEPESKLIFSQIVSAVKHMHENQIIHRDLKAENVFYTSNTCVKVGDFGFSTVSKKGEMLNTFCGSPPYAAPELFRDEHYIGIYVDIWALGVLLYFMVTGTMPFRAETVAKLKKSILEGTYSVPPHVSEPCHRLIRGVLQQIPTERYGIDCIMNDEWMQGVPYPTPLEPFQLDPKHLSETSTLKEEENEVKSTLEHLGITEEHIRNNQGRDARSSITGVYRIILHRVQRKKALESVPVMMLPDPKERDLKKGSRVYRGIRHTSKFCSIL
kinases (Homo sapiens, UniProt Q9UEE5), sequence (Q9UEE5 whole entry): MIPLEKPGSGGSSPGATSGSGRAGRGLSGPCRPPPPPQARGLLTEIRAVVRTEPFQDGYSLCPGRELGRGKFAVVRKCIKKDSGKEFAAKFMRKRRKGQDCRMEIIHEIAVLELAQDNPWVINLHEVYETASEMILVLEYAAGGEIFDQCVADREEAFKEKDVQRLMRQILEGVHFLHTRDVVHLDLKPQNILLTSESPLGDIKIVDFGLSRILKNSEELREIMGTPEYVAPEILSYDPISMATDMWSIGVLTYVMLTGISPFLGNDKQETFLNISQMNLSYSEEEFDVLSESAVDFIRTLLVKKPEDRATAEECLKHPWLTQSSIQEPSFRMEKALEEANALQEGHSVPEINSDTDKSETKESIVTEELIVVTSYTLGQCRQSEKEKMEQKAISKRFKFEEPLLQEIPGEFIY
kinases (Homo sapiens, UniProt P78362), sequence (P78362 whole entry): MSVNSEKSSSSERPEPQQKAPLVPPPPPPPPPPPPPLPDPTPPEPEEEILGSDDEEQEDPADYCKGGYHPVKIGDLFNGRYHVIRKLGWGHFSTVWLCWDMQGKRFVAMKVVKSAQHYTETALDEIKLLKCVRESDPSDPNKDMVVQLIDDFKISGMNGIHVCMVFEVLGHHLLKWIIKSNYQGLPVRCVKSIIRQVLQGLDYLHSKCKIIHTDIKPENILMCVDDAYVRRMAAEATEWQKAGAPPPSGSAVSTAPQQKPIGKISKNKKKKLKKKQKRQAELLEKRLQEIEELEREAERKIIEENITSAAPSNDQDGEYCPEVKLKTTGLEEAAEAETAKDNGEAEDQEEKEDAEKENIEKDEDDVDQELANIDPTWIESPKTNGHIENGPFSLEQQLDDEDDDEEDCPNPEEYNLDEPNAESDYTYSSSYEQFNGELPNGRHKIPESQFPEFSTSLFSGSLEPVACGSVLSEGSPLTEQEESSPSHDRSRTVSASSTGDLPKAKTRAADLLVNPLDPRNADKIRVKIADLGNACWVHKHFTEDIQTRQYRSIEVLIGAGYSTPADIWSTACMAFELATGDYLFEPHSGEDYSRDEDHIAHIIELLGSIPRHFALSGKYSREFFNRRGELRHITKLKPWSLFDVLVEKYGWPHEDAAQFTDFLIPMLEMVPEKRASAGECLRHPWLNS
kinases (Homo sapiens, UniProt Q9Y2H1), sequence (Q9Y2H1 whole entry): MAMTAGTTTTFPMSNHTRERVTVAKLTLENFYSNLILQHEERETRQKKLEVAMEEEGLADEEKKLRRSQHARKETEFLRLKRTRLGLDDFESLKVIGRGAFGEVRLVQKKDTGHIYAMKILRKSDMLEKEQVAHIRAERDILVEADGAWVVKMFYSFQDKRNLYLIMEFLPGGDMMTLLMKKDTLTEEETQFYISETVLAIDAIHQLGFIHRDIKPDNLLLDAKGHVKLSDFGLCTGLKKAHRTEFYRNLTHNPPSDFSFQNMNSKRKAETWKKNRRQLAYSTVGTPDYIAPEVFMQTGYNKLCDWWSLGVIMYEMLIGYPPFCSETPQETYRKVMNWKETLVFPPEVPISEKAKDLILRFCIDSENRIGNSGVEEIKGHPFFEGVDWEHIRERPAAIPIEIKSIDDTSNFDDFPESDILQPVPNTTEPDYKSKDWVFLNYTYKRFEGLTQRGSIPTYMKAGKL
kinases (Homo sapiens, UniProt P36888), sequence (P36888 27-993): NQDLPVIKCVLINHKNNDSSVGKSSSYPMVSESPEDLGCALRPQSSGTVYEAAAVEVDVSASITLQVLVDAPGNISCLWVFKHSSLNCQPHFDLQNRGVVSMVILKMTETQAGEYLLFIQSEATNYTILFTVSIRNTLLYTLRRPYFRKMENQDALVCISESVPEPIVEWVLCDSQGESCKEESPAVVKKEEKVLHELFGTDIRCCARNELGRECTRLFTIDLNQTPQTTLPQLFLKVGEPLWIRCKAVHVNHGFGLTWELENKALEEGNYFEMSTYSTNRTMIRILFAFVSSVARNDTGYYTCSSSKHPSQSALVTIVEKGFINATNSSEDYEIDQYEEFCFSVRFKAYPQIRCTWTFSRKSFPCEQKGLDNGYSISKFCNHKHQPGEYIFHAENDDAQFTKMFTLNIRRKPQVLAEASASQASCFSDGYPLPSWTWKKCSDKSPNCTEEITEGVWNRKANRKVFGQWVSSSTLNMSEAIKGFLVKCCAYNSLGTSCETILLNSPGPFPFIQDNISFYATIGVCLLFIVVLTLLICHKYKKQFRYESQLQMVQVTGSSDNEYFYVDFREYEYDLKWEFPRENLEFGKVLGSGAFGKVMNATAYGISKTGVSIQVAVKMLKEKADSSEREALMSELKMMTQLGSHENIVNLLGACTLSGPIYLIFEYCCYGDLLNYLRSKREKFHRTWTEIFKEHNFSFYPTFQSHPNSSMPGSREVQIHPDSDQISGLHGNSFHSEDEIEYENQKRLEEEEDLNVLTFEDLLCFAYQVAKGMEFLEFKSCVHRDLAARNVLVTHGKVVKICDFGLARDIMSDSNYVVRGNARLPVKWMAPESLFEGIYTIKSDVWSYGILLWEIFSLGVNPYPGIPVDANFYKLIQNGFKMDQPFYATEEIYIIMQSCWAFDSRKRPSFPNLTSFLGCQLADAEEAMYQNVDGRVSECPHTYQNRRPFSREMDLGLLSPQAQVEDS
kinases (Homo sapiens, UniProt Q9HAZ1), sequence (Q9HAZ1 whole entry): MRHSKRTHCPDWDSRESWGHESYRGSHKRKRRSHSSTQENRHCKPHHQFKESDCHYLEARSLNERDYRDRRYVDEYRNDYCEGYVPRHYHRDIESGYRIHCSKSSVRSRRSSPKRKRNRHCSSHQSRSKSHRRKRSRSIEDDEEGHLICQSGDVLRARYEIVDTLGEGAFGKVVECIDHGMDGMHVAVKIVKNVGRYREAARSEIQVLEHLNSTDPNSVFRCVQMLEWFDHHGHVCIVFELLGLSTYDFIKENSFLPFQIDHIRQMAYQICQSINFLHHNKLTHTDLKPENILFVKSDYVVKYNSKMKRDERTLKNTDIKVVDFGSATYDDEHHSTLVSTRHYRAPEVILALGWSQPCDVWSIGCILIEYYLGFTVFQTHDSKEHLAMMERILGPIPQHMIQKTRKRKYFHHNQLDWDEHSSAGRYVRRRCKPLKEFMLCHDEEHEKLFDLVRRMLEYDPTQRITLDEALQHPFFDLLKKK

| SMILES | Mean Inhib (%) [2] | Mean Inhib (%) [3] | Mean Inhib (%) [4] | Mean Inhib (%) [5] | Mean Inhib (%) [6] | Mean Inhib (%) [7] | Mean Inhib (%) [8] | Mean Inhib (%) [9] | Mean Inhib (%) [10, 29] | Mean Inhib (%) [10, 30] | Mean Inhib (%) [10, 31] | Mean Inhib (%) [10, 32] | Mean Inhib (%) [10, 33] | Mean Inhib (%) [10, 34] | Mean Inhib (%) [11] | Mean Inhib (%) [12] | Mean Inhib (%) [13] | Mean Inhib (%) [15] | Mean Inhib (%) [16, 35] | Mean Inhib (%) [16, 36] | other results |
| --- | --- | --- | --- | --- | --- | --- | --- | --- | --- | --- | --- | --- | --- | --- | --- | --- | --- | --- | --- | --- | --- |
| Cc1ccc(NC(=O)c2ccnc(N3CCOCC3)c2)cc1Nc1ccnc(N2CC(C)OC(C)C2)n1 (centres unmarked) [compound 3] | 19.5% | 2.1% | 2.3% | 8.0% | 6.5% | −9.3% | 10.1% | 6.5% | −0.8% | −1.1% | −3.5% | 11.4% | 7.8% | 3.8% | −1.9% | 13.1% | 3.5% | 6.5% | 79.8% | 59.0% | Mean Inhib (%) ([1]; PIP5K1B FRET-Adapta SP): 4.5%; Mean Inhib (%) ([14]; CDK13 Cyclin K FRET-Lantha SP): 5.4%; Mean Inhib (%) [17]: −1.4%; Mean Inhib (%) [18]: −0.9%; Mean Inhib (%) [19]: 2.6%; Mean Inhib (%) [20]: 7.4%; Mean Inhib (%) [21]: −3.2%; Mean Inhib (%) [22]: 0.6%; Mean Inhib (%) [23]: 5.8%; Mean Inhib (%) [24]: 6.4%; Mean Inhib (%) [25]: 3.1%; Mean Inhib (%) [26]: 4.6%; Mean Inhib (%) [27]: 15.6%; Mean Inhib (%) [28]: 3.5% |
| Cc1cc(Oc2ccnc(Nc3ccc(S(N)(=O)=O)cc3)c2)c(-c2ccccn2)nc1C [compound 65] | 17.2% | 1.5% | 10.9% | 2.3% | −2.0% | 8.9% | 6.4% | 4.9% | −1.2% | 1.4% | 2.9% | −6.7% | −5.2% | −4.3% | 1.9% | 7.3% | 32.3% | 11.3% | 19.9% | 13.5% | PIP5K1B FRET-Adapta SP Mean Mean Inhib (%) ([1]; PIP5K1B): 2.1%; CDK13 Cyclin K FRET-Lantha SP Mean Mean Inhib (%) ([14]; CDK13 Cyclin K): 4.1%; Mean Inhib (%) [17]: −2.6%; Mean Inhib (%) [18]: −0.4%; Mean Inhib (%) [19]: −1.0%; Mean Inhib (%) [20]: 6.9%; Mean Inhib (%) [21]: −0.8%; Mean Inhib (%) [22]: −0.3%; Mean Inhib (%) [23]: −4.9%; Mean Inhib (%) [24]: 0.4%; Mean Inhib (%) [25]: 78.3%; Mean Inhib (%) [26]: −1.2%; Mean Inhib (%) [27]: 5.5%; Mean Inhib (%) [28]: 5.7% |
